For assay [1], the system named is HeLa cells. Description: Annexin V-FITC/PI apoptosis staining. Format: cell-based, human. The note with it: 72 h. The protocol: Apoptosis in HeLa cells was evaluated using Annexin V‐FITC/PI staining. Hela cells (20 × 10^3) were seeded into 24‐well plates and incubated for 72 h with compound 2. The final concentration of DMSO for the tested compound was 0.1%, which was consistent with the percentage of DMSO used in the negative control. After treatments, cells were resuspended in a 100 μL of assay buffer per well, after which 5 μL of Annexin V‐FITC and 1 μL of PI reagents were added. […] The cells were analyzed with a Becton Dickinson FACScan flow cytometer using the Cell Quest software, version 4 (Franklin Lakes, NJ, USA).

Assay [2] concerns HeLa cells. Description: Thioflavin T (ThT) protein misfolding staining. The class given is cell-based, human. The conditions noted are these: HeLa, 3, 6 and 12 µM, 72 h; p < 0.01 (3 µM), p < 0.001 (6, 12 µM) vs. Ctrl. The protocol: Protein misfolding was analyzed by using Thioflavin T (ThT, Sigma Aldrich, St. Louis, MO, USA) staining.^[ [39] ^] HeLa cells (4 × 10^3 cells well^−1) were grown in 96‐well plates and allowed to adhere for 24 h. The medium was then replaced, and the cells were treated with compound 2 (3, 6, and 12 µM) for 72 h. The final concentration of DMSO for the tested compound was 0.1%, which is consistent with the percentage of DMSO used in the negative control. After treatments, the culture medium was replaced, cells were washed with PBS and 100 μL well^−1 of ThT was added (final concentration, 20 µM). After incubation at 37 °C for 20 min in the dark, live cells were analyzed by using ZOE Fluorescent Cell Imager microscope (Biorad, Hercules, California, USA). Magnification, 20×. Scale bar: 100 μm (N ≥ 5). Quantitative analyses were performed in end point mode using a PerkinElmer EnSpire multimode plate reader (excitation/emission 450 nm/482 nm).

Assay [3] deals with T1, BAG3 (Homo sapiens, UniProt O95817).
T1 construct: endogenous in cells; host or cells: HeLa cell lysate
T1 sequence (O95817 whole entry): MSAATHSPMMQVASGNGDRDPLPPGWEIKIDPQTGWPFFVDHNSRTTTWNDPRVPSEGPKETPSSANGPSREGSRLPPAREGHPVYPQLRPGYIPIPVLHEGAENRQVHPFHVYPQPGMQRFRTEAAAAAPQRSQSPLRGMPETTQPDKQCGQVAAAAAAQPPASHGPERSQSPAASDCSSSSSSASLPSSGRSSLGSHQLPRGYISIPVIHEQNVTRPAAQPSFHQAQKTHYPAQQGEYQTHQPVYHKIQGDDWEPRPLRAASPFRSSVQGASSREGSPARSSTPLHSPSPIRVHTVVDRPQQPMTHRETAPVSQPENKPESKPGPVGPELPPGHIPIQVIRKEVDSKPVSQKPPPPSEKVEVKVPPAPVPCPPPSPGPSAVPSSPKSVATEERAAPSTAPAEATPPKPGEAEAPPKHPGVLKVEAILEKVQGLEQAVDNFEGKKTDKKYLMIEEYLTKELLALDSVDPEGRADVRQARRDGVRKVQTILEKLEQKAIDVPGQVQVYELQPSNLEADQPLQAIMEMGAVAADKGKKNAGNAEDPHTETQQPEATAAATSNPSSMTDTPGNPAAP
Description: t-LiP-MS (targeted limited proteolysis-MS) in HeLa cell lysate. Format: binding. The conditions noted are these: SP18 100 µM, subtilisin 30 min. The procedure:
To develop the t‐LiP‐MS experiment, MRM methods were optimized by selecting tryptic peptides for BAG3 (UniProt Accession: O95817) using the Human PeptideAtlas data repository in combination with SRMAtlas for their daughter ion identification. First, the three best transitions for each peptide were selected (obtaining a list of 57 transitions) and tested on a tryptic‐digested HeLa cell lysate, following the protocol of Capuano et al., 2024.^[ [41] ^] For chromatographic separation, 15 µL of peptide mixture samples (dissolved in 10% formic acid (FA) to a final concentration of 2 µg µL^−1) were injected and separated on an Aeris Peptide XB C18 column (50 × 2.1 mm, 3.6 μm, 100 Å, Phenomenex, Torrance, USA) using a gradient from 5% to 95% B in 12 min (A: 0.1% FA in H2O, B: 0.1% FA in CH3CN). QTrap parameters were as follows: curtain gas (CUR) = 30; ion‐spray voltage (IS) = 5500; temperature (TEM) = 250 °C; ion source gas 1 (GS1) = 25; ion source gas 2 (GS2) = 25; declustering potential (DP) = 80; entrance potential (EP) = 15; collision cell exit potential (CXP) = 12. Data acquisition and processing were performed using Analyst software 1.6.2 (AB Sciex, Foster City, CA, USA). At the end of the preliminary experiment, 14 best transitions were selected for the final MRM method.
For the t‐Lip‐MS experiment, HeLa cell lysate ([…]) was divided into aliquots and incubated for 1 hr either with DMSO (control sample) or SP18 (100 µM in DMSO) at room temperature under shaking (Mini‐Rotator, Biosan). Samples were then first subjected to limited proteolysis with the nonspecific enzyme subtilisin (enzyme‐to‐proteins ratio of 1:1500 w/w) for 30 min, at room temperature and under continuous shaking (500 rpm, Thermomixer, Biosan) and then extensively digested with the specific protease trypsin (enzyme to proteins ratio of 1:100 w/w, overnight, room temperature, 300 RPM).^[ [42] ^] […] Fold change (Fc) (the ratio between the peak area in the treated sample and control sample) was calculated for each peptide, and only those with Fc ≥1.5 and p‐value ≤0.05 were considered protected.^[ [41] ^]

For `O=C(OCc1cn(Cc2ccc3c(c2)C(=O)c2ccccc2C3=O)nn1)c1cccc([N+](=O)[O-])c1` [Compound 2, (1‐((9,10‐Dioxo‐9,10‐dihydroanthracen‐2‐yl)methyl)‐1H‐1,2,3‐triazol‐4‐yl)methyl 3‐nitrobenzoate], the cells undergoing apoptosis in assay [1] (20 µM, p < 0.05 vs. control) is listed as 21.6 ± 1.14%; in assay [1] (30 µM, p < 0.05 vs. control), 28.0 ± 3.41%; in assay [1] (50 µM, p < 0.01 vs. control), 40.2 ± 2.11%. The “protein misfolding and aggregate formation (ThT)” value in assay [2] is “significant induction of protein misfolding and aggregate formation”.
`O=C(OCc1cn(Cc2ccc(C(=O)c3ccccc3)cc2)nn1)c1cccc([N+](=O)[O-])c1` [SP18]: the “Fold change (Fc) of protected BAG3 peptide V [432–445] K” value in assay [3] (p value 0.01) is recorded as 1.74. Further, the “Fold change (Fc) of protected BAG3 peptide E [461–473] R” value in assay [3] (p value 0.02) was found to be 1.67. Moreover, in assay [3] (p value 0.04), the “Fold change (Fc) of protected BAG3 peptide T [231–249] K” value stood at 1.68.

(Values after PMC12530843, “Identification of a New Interesting BAG3 Modulator Able to Disrupt Cancer‐Related Pathways” (Chemmedchem, 2025).)
